Reference: patent US20150259344A1, “IMIDAZOLE DERIVATIVE” (DAINIPPON SUMITOMO PHARMA CO., LTD., priority 2012, published 2015)

These compounds were tested against T1, human α7 nAChR (Homo sapiens, UniProt P36544) (assay: Evaluation of PAM activity with human α7 nACh receptor stably expressing cells (aequorin luminescence, FDSS7000)). Settings: 1 μM test compound (values marked *, footnote of Table 25); ACh at EC20; ratio of RLU (Max-Min) to control wells; read-out: α7PAM (%) @1 μM.
T1 construct: expressed in transfected cells
Assay type: cell-based
Protocol: Evaluation of PAM activity with human α7 nACh receptor stably expressing cells
(1) Human α7 nAChR stably expressing cells
Human α7 nAChR stably expressing cells were generated and cultured.
Thus, the cells were subcultured.
Seven days after subculturing, the cells were treated with TrypLE Express to collect them when they were about 80% confluent.
On the next day after seeding, Viviren (cat#E649X, Promega, Madison, Wis., USA) was added to the medium so that the final concentration could be 4 μM (15 μL/well). The plates were centrifuged and then placed in the dark for 4 hours at room temperature.
(2) Preparation of the Test Samples
Each of the test compounds was dissolved in DMSO to prepare each test sample at a concentration of 1000-fold the final concentration. To the solution was added Hanks/20 mM HEPES/0.2% BSA (cat#A3803, Sigma, St. Louis, Mo., USA), and the concentration was adjusted to 6-fold the final concentration.
(3) Evaluation of PAM Activity
FDSS7000 (Hamamatsu Photonics) was used to detect the luminescence signal evoked by α7 nAChR stimulation. The cells and a luminescent substrate were put on a plate, and the test sample was added thereto. […] The ratio of the RLU (Max-Min) of the test-compound-containing wells to that of the control wells was defined as PAM activity.

T1 sequence (P36544 23-502): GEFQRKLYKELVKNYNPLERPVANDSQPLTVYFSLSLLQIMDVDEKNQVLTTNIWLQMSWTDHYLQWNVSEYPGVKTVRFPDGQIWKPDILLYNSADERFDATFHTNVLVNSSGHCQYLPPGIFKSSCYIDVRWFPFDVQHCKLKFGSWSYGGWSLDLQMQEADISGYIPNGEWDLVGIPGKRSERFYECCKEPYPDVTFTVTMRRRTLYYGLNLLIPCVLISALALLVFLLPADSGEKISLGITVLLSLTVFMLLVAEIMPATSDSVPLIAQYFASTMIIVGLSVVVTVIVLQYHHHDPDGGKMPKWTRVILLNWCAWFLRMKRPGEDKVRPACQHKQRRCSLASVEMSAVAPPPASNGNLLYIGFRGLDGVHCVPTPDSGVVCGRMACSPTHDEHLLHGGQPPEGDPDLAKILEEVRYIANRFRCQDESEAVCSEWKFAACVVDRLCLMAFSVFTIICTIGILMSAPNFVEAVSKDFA

| Compound | activity at 1 µM [%] |
| --- | --- |
| O=C(NC1CCOCC1)[C@H]1CC[C@@H](n2cnc(-c3ccc(F)c(F)c3)c2)CC1 [Example 357] | 130 |
| N#Cc1c(-c2cc(F)ccc2F)ncn1[C@@H]1C[C@H]2CC[C@@H](C1)N2C(=O)NC1CCC(F)(F)CC1 [Example 423] | 390 |
| O=C(N[C@H]1CC[C@@H](n2cnc(-c3cccc(F)c3)c2Cl)CC1)C1CCCC1 [Example 177] | 389 |
| N#Cc1c(-c2cc(F)ccc2F)ncn1[C@H]1C[C@H]2CC[C@@H](C1)N2C(=O)NC1CCC(F)(F)CC1 [Example 403] | 590 |
| CC(C)(C)C(=O)N[C@H]1CC[C@@H](n2cnc(-c3ccc(Cl)cc3)c2C#N)CC1 [Example 334] | 212 |
| O=C(NC1CCOCC1)[C@H]1CC[C@@H](n2cnc(-c3ccccc3F)c2)CC1 [Example 356] | 119 |
| COC1CCC(NC(=O)N2CCC(n3cnc(-c4ccc(F)cc4)c3)CC2)CC1 (stereo not shown) [Example 33] | 126 |
| COc1cc(-c2ncn([C@H]3CC[C@@H](NC(=O)C4CCC4)CC3)c2Cl)ccc1F [Example 191] | 364 |
| CC(C)(F)C(=O)N[C@H]1CC[C@@H](n2cnc(-c3ccc(F)c(OC(F)(F)F)c3)c2)CC1 [Example 295] | 444 |

Same assay, conditions: 10 μM test compound; ACh at EC20; ratio of RLU (Max-Min) to control wells

| Compound | α7PAM (%) @10 μM [%] |
| --- | --- |
| CC(C)(F)C(=O)N[C@H]1CC[C@@H](n2cnc(-c3ccc(F)cc3)c2)CC1 [Example 8, 2-Fluoro-N-{cis-4-[4-(4-fluorophenyl)-1H-imidazol-1-yl]cyclohexyl}-2-methylpropanamide] | 476 |

Same assay, conditions: 10 μM test compound; ACh at EC20; ratio of RLU (Max-Min) to control wells; read-out: α7PAM (%) @10 μM

| Compound | activity at 10 µM [%] |
| --- | --- |
| CC(C)(F)C(=O)N[C@H]1CC[C@@H](n2cnc(-c3cc(F)ccc3F)c2)CC1 [Example 301] | 828 |
| CC(C)(F)C(=O)N[C@H]1CC[C@@H](n2cnc(-c3cc(Cl)ccc3F)c2)CC1 [Example 284] | 398 |
| Cc1ccc(-c2cn(C3CCN(C(=O)NC4CCCCC4)CC3)cn2)s1 [Example 124] | 572 |
| N#Cc1c(-c2ccc(F)cc2F)ncn1C1CCN(C(=O)C2CCC(F)(F)CC2)CC1 [Example 271] | 275 |
| O=C(NC1CCC(F)(F)CC1)N1[C@@H]2CC[C@H]1C[C@H](n1cnc(-c3cccc(F)c3F)c1)C2 [Example 409] | 576 |
| O=C(C1CCC(F)(F)CC1)N1[C@@H]2CC[C@H]1C[C@H](n1cnc(-c3ccc(F)cc3)c1)C2 [Example 446] | 143 |
| Cc1c(-c2ccccc2)ncn1C1CCN(C(=O)NC2CCCCC2)CC1 [Example 102] | 641 |
| O=C(N[C@H]1CC[C@H](n2cnc(-c3ccccc3)c2Cl)CC1)C1CCC(F)(F)CC1 [Example 207] | 115 |
| N#Cc1c(-c2ccc(Cl)cc2)ncn1C1CCN(C(=O)C2CCC(F)(F)CC2)CC1 [Example 159] | 692 |
| CC(C)(F)C(=O)N[C@H]1CC[C@@H](n2cnc(-c3ccc(OC(F)(F)F)cc3)c2C#N)CC1 [Example 346] | 169 |
| O=C(NC1CCC(F)(F)CC1)N1[C@@H]2CC[C@H]1C[C@H](n1cnc(-c3cc(F)ccc3F)c1)C2 [Example 412] | 423 |
| CC(C)(C)NC(=O)N1CCC(n2cnc(-c3ccccc3F)c2Cl)CC1 [Example 92] | 758 |
| O=C(NC1CCC(F)(F)CC1)N1[C@@H]2CC[C@H]1C[C@@H](n1cnc(-c3cc(F)ccc3F)c1Cl)C2 [Example 396] | 585 |
| Cc1nc(-c2ccccc2)cn1C1CCN(C(=O)NC2CCCCC2)CC1 [Example 114] | 133 |
| O=C(NC1CCC(F)(F)CC1)N1CCC(n2cnc(-c3ccccn3)c2Cl)CC1 [Example 137] | 328 |
| O=C(NC1CCCCC1)N1CCC(n2cnc(-c3ccc(F)cc3)c2)CC1 [Example 15] | 596 |
| O=C(NC1CC2CCC1C2)N1CCC(n2cnc(-c3ccc(OC(F)F)cc3)c2)CC1 (stereo not shown) [Example 57] | 302 |
| O=C(NC1CCCCC1)N1CCC(n2cnc(-c3ccccn3)c2)CC1 [Example 132] | 151 |
| CC(C)(F)C(=O)N[C@H]1CC[C@@H](n2cnc(-c3cccc(Cl)c3)c2)CC1 [Example 286] | 469 |
| O=C(NC1CCC(F)(F)CC1)N1CCC(n2cnc(-c3ccccc3)c2)CC1 [Example 39] | 823 |
| CC(C)(F)C(=O)N1CCC(n2cnc(-c3ccc(F)cc3)c2C#N)CC1 [Example 266] | 149 |
| O=C(NC1CCOCC1)N1CCC(n2cnc(-c3ccc(C(F)(F)F)cc3)c2)CC1 [Example 29] | 378 |
| O=C(NC1CC2CCC1C2)N1CCC(n2cnc(-c3cccc(F)c3)c2)CC1 (stereo not shown) [Example 2, N-(Bicyclo[2.2.1]hept-2-yl)-4-[4-(3-fluorophenyl)-1H-imidazol-1-yl]piperidine-1-carboxamide] | 117 |
| CC(C)(F)C(=O)N[C@H]1CC[C@@H](n2cnc(-c3cc(F)ccc3F)c2C#N)CC1 [Example 341] | 233 |

| Compound | activity at 10 µM [%] |
| --- | --- |
| O=C(N[C@H]1CC[C@@H](n2cnc(-c3ccccc3)c2Cl)CC1)C1CCC1 [Example 171] | 551 |
| O=C(C1CCC(F)(F)CC1)N1CCC(n2cnc(-c3ccc(C(F)(F)F)cc3)c2)CC1 [Example 138] | 597 |
| N#Cc1c(-c2cc(F)ccc2F)ncn1C1CCN(C(=O)C2CCC(F)(F)CC2)CC1 [Example 274] | 351 |
| O=C(N[C@H]1CC[C@@H](n2cnc(-c3ccccc3)c2Cl)CC1)C1CCCC1 [Example 170] | 530 |
| O=C(NC1CCC(F)(F)CC1)N1[C@@H]2CC[C@H]1C[C@@H](n1cnc(-c3ccc(F)cc3F)c1Cl)C2 [Example 394] | 455 |
| Cc1c(-c2ccc(F)cc2)ncn1C1CCN(C(=O)NC2CCOCC2)CC1 [Example 259] | 420 |
| O=C(NC1CCC(F)(F)CC1)N1[C@@H]2CC[C@H]1C[C@@H](n1cnc(-c3cccc(F)c3F)c1)C2 [Example 386] | 880 |
| O=C(C1CCC(F)(F)CC1)N1CCCC(n2cnc(-c3ccc(F)cc3)c2Cl)CC1 (stereo not shown) [Example 243] | 290 |
| CC(C)(F)C(=O)N[C@H]1CC[C@@H](n2cnc(-c3cc(OC(F)(F)F)ccc3F)c2C#N)CC1 [Example 349] | 290 |
| O=C(Nc1ccccc1F)N1CCC(n2cnc(-c3ccc(Cl)cc3)c2)CC1 [Example 21] | 291 |
| CCOc1ccc(-c2cn(C3CCN(C(=O)C4CCC(F)(F)CC4)CC3)cn2)cc1 [Example 147] | 484 |
| O=C(NC1CCCCC1)N1CCCC(n2cnc(-c3ccc(F)cc3)c2)CC1 (stereo not shown) [Example 240] | 280 |
| Cc1c(-c2ccc(F)cc2)ncn1C1CCN(C(=O)NC(C)(C)C)CC1 [Example 257] | 439 |
| N#Cc1c(-c2ccccc2F)ncn1C1CCN(C(=O)C2CCC(F)(F)CC2)CC1 [Example 156, 1-{1-[(4,4-difluorocyclohexyl)carbonyl]piperidin-4-yl}-4-(2-fluorophenyl)-1H-imidazole-5-carbonitrile] | 522 |
| O=C(NC1CCC(F)(F)CC1)N1CCC(n2cnc(-c3ccncc3)c2Cl)CC1 [Example 136] | 309 |
| O=C(NC1CCCCC1)N1[C@@H]2CC[C@H]1C[C@H](n1cnc(-c3ccc(F)cc3F)c1)C2 [Example 408] | 140 |
| CC(C)(C)C(=O)N[C@H]1CC[C@@H](n2cnc(-c3ccc(Cl)cc3)c2)CC1 [Example 281] | 411 |
| O=C(NC1CCOCC1)N1CCC(n2cnc(-c3cccc(C(F)(F)F)c3)c2Cl)CC1 [Example 94, 4-{5-chloro-4-[3-(trifluoromethyl)phenyl]-1H-imidazol-1-yl}-N-(tetrahydro-2H-pyran-4-yl)piperidine-1-carboxamide] | 981 |
| O=C(N[C@H]1CC[C@H](C(F)(F)F)CC1)N1CCC(n2cnc(-c3cccc(F)c3)c2)CC1 [Example 3, 4-[4-(3-Fluorophenyl)-1H-imidazol-1-yl]-N-[trans-4-(trifluoromethyl)cyclohexyl]piperidine-1-carboxamide] | 493 |
| O=C(C1CCC(F)(F)CC1)N1CCC(n2cnc(-c3cccc(F)c3)c2)CC1 [Example 144] | 346 |
| O=C(NC1CC2CCC1C2)N1CCC(n2cnc(-c3cccc(OC(F)F)c3)c2)CC1 (stereo not shown) [Example 56] | 169 |
| CC(C)(F)C(=O)N[C@H]1CC[C@@H](n2cnc(-c3ccc(OC(F)(F)F)cc3F)c2)CC1 [Example 303] | 208 |
| O=C(NC1CCCCC1)N1CCC(n2cnc(-c3c(F)cccc3F)c2)CC1 [Example 10] | 597 |
| CCOc1ccc(-c2cn(C3CCN(C(=O)NC4CCCCC4)CC3)cn2)cc1 [Example 55] | 403 |

Same assay, conditions: GH4-C1, 10 μM test compound; ratio of RLU (Max-Min) of test wells to control wells after ACh at EC20; GH4C1 cells expressing human α7 nAChR and aequorin; read-out: α7PAM (%) @10 μM

| Compound | activity at 10 µM [%] |
| --- | --- |
| CC(C)(C)NC(=O)[C@H]1CC[C@H](n2cnc(-c3ccccc3)c2Cl)CC1 [Example 234] | 130 |

Same assay, conditions: comparison across Tables 18 to 25

| Compound | PAM activity for α7 nAChR (in words) |
| --- | --- |
| Cc1ccc(-c2cn(C3CCN(C(=O)NC4CCCCC4)CC3)cn2)cc1 [Example 18] | stronger PAM activity than others |
| O=C(NC1CCOCC1)[C@H]1CC[C@@H](n2cnc(-c3cccc(Cl)c3)c2Cl)CC1 [Example 362] | stronger PAM activity than others |
